Reference: ChEMBL document CHEMBL2203030, “Synthesis, characterization, antidepressant and antioxidant activity of novel piperamides bearing piperidine and piperazine analogues” (Bioorg Med Chem Lett, 2012)
≈ marks a conversion by molar mass, not a printed value.

Columns and labels:
Type in all cases: functional
[1] = tested on: Candida albicans; assay: Antimicrobial activity against Candida albicans NCIM 3471 by broth dilution method
[2] = tested on: Aspergillus flavus; assay: Antimicrobial activity against Aspergillus flavus NCIM 524 at 100 ug/mL incubated for 48 hrs by agar disc diffusion method; conditions: NCIM 524, 48 h, read-out: IZ
[3] = tested on: Candida albicans; assay: Antimicrobial activity against Candida albicans NCIM 3471 at 10 ug/disc incubated for 48 hrs by agar disc diffusion method; conditions: NCIM 3471, 48 h, read-out: IZ
[4] = tested on: Aspergillus flavus; assay: Antimicrobial activity against Aspergillus flavus NCIM 524 at 10 ug/disc incubated for 48 hrs by agar disc diffusion method; conditions: NCIM 524, 48 h

**Q.** `OC(Cn1cncn1)(Cn1cncn1)c1ccc(F)cc1F` [FLUCONAZOLE] was tested. Which MIC [1] did it give?
**A.** Its MIC is 5 µg/mL (≈ 16.3 µM).

**Q.** What about the zone of inhibition at 100 µg/mL [2] of the same compound?
**A.** Its zone of inhibition at 100 µg/mL is 19 mm.

**Q.** And the zone of inhibition at 10 µg/disc [3]?
**A.** The zone of inhibition at 10 µg/disc was 16 mm.

**Q.** And the MIC [4]?
**A.** Its MIC is 5 µg/mL (≈ 16.3 µM).
